Experimental data published in ChEMBL document CHEMBL3351909, “In vitro and in vivo characterization of a benzofuran derivative, a potential anticancer agent, as a novel Aurora B kinase inhibitor” (Eur J Med Chem, 2015).
Activity calls are given as the source filed them. The calls are words filed in the database; no cut-off is given here.

Columns and labels:
[1] = Cytotoxicity against human CaSki cells after 96 hrs by CCK-8 assay; format: functional, cell-based; conditions: Ca-Ski
[2] = target: AMP-activated protein kinase, AMPK; assay: Inhibition of recombinant AMPK A1/B1/G1 (unknown origin) after 60 mins by z'-lyte kinase assay; format: protein-complex assay, Homo sapiens
CNE = assay: Cytotoxicity against human CNE cells after 96 hrs by CCK-8 assay; format: functional, cell-based
HepG2 [3] = assay: Inhibition of colony formation in human HepG2 cells at 5 uM after 96 hrs by crystal violet staining-based assay; format: functional, cell-based
[4] = target: Vascular endothelial growth factor receptor 3 (Homo sapiens, UniProt P35916); assay: Inhibition of recombinant FLT4 (unknown origin) after 60 mins by z'-lyte kinase assay
[5] = target: Protein kinase C alpha type (Homo sapiens, UniProt P17252); assay: Inhibition of recombinant PKC alpha (unknown origin) after 60 mins by z'-lyte kinase assay
HeLa [6] = assay: Cell cycle arrest in human HeLa cells assessed as accumulation at G2/M phase at 20 uM after 48 hrs by flow cytometry relative to control; format: functional
[7] = Antitumor activity against human QGY7401 cells xenografted in nude mouse assessed as inhibition of tumor growth at 10 mg/kg, ip qd administered for 14 days measured on day 18 relative to control; format: functional; conditions: route intraperitoneal, read-out: TGI
Aurora kinase B [8] = target: T1, Aurora kinase B (Homo sapiens, UniProt Q96GD4); assay: Inhibition of AURKB in human HeLa cells assessed as reduction in histone H3 phosphorylation at 5 to 20 uM after 48 hrs by Western blotting analysis; format: cell-based
MCF7 = assay: Cytotoxicity against human MCF7 cells after 96 hrs by CCK-8 assay; format: functional, cell-based; conditions: MCF7, 96 h
Aurora kinase B [9] = target: T1, Aurora kinase B; assay: Inhibition of AURKB in human HepG2 cells assessed as reduction in Aurora B expression expression at 5 to 20 uM after 48 hrs by Western blotting analysis; format: cell-based
HepG2 [10] = assay: Cytotoxicity against human HepG2 cells after 96 hrs by CCK-8 assay; format: functional, cell-based; conditions: HepG2, 96 h
[11] = Cytotoxicity against human QGY7401 cells after 96 hrs by CCK-8 assay; format: functional, cell-based
[12] = Cytotoxicity against human SKOV3 cells after 96 hrs by CCK-8 assay; format: functional, cell-based; conditions: SK-OV-3, 96 h
Aurora kinase B [13] = target: T1, Aurora kinase B; assay: Inhibition of recombinant AURKB (unknown origin) after 60 mins by z'-lyte kinase assay
SW-620 [14] = assay: Inhibition of colony formation in human SW620 cells after 96 hrs by crystal violet staining-based assay; format: functional, cell-based
SMMC-7721 = assay: Cytotoxicity against human SMMC7721 cells after 96 hrs by CCK-8 assay; format: functional, cell-based; conditions: SMMC-7721, 96 h
[15] = target: Cyclin-dependent kinase 1/cyclin B1 (Homo sapiens, UniProt P06493); assay: Inhibition of recombinant CDK1/cyclin B (unknown origin) after 60 mins by z'-lyte kinase assay; format: protein-complex assay
HeLa [16] = assay: Growth inhibition of human HeLa cells at 5 to 20 uM after 96 hrs by CCK-8 assay; format: functional, cell-based
[17] = Antitumor activity against human QGY7401 cells xenografted in nude mouse assessed as reduction in body weight at 10 mg/kg, ip qd administered for 14 days measured on day 18 (reference value: 24.13 +/- 2.18 g); format: functional; conditions: route intraperitoneal
[18] = Antitumor activity against human QGY7401 cells xenografted in nude mouse assessed as reduction in tumor weight at 10 mg/kg, ip qd administered for 14 days measured on day 18 (reference value: 2.24 +/- 0.20 g); format: functional; conditions: route intraperitoneal
SW-620 [19] = assay: Inhibition of colony formation in human SW620 cells at 5 uM after 96 hrs by crystal violet staining-based assay; format: functional, cell-based
HepG2 [20] = assay: Growth inhibition of human HepG2 cells at 5 to 20 uM after 96 hrs by CCK-8 assay; format: functional, cell-based
MDA-MB-231 = assay: Cytotoxicity against human MDA-MB-231 cells after 96 hrs by CCK-8 assay; format: functional, cell-based; conditions: MDA-MB-231, 96 h
Aurora kinase B [21] = target: T1, Aurora kinase B; assay: Inhibition of AURKB in human SW620 cells assessed as reduction in histone H3 expression at 5 to 20 uM after 48 hrs by Western blotting analysis; format: cell-based; conditions: SW-620
[22] = target: Vascular endothelial growth factor receptor 1 (Homo sapiens, UniProt P17948); assay: Inhibition of recombinant FLT1 (unknown origin) after 60 mins by z'-lyte kinase assay
LoVo = assay: Cytotoxicity against human LoVo cells after 96 hrs by CCK-8 assay; format: functional, cell-based
HeLa [23] = assay: Inhibition of colony formation in human HeLa cells after 96 hrs by crystal violet staining-based assay; format: functional, cell-based
HT-29 = assay: Cytotoxicity against human HT-29 cells after 96 hrs by CCK-8 assay; format: functional, cell-based; conditions: HT-29, 96 h
Aurora kinase B [24] = target: T1, Aurora kinase B; assay: Inhibition of AURKB in human HepG2 cells assessed as reduction in histone H3 expression at 5 to 20 uM after 48 hrs by Western blotting analysis; format: cell-based
[25] = target: Mitogen-activated protein kinase 1 (Homo sapiens, UniProt P28482); assay: Inhibition of recombinant MAPK1 (unknown origin) after 60 mins by z'-lyte kinase assay
[26] = Antitumor activity against human QGY7401 cells xenografted in nude mouse assessed as reduction in tumor weight at 20 mg/kg, ip qd administered for 14 days measured on day 18 (reference value: 2.24 +/- 0.20 g); format: functional; conditions: route intraperitoneal
[27] = Antitumor activity against human QGY7401 cells xenografted in nude mouse assessed as inhibition of tumor growth at 20 mg/kg, ip qd administered for 14 days measured on day 18 relative to control; format: functional; conditions: route intraperitoneal, read-out: TGI
HepG2 [28] = assay: Cell cycle arrest in human HepG2 cells assessed as accumulation at G2/M phase at 20 uM after 48 hrs by flow cytometry relative to control; format: functional
[29] = Cytotoxicity against human SKHEP1 cells after 96 hrs by CCK-8 assay; format: functional, cell-based; conditions: SK-HEP1, 96 h

T1 sequence (Q96GD4 whole entry): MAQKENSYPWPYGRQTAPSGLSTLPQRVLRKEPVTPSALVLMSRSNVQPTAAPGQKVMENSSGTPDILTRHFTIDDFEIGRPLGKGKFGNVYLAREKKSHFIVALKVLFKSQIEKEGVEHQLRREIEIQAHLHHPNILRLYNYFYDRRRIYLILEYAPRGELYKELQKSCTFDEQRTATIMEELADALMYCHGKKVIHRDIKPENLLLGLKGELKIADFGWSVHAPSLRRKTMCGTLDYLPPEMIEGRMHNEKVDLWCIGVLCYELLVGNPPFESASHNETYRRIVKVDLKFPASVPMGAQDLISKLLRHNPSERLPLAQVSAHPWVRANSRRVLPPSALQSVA
Vascular endothelial growth factor receptor 3, sequence (P35916 whole entry): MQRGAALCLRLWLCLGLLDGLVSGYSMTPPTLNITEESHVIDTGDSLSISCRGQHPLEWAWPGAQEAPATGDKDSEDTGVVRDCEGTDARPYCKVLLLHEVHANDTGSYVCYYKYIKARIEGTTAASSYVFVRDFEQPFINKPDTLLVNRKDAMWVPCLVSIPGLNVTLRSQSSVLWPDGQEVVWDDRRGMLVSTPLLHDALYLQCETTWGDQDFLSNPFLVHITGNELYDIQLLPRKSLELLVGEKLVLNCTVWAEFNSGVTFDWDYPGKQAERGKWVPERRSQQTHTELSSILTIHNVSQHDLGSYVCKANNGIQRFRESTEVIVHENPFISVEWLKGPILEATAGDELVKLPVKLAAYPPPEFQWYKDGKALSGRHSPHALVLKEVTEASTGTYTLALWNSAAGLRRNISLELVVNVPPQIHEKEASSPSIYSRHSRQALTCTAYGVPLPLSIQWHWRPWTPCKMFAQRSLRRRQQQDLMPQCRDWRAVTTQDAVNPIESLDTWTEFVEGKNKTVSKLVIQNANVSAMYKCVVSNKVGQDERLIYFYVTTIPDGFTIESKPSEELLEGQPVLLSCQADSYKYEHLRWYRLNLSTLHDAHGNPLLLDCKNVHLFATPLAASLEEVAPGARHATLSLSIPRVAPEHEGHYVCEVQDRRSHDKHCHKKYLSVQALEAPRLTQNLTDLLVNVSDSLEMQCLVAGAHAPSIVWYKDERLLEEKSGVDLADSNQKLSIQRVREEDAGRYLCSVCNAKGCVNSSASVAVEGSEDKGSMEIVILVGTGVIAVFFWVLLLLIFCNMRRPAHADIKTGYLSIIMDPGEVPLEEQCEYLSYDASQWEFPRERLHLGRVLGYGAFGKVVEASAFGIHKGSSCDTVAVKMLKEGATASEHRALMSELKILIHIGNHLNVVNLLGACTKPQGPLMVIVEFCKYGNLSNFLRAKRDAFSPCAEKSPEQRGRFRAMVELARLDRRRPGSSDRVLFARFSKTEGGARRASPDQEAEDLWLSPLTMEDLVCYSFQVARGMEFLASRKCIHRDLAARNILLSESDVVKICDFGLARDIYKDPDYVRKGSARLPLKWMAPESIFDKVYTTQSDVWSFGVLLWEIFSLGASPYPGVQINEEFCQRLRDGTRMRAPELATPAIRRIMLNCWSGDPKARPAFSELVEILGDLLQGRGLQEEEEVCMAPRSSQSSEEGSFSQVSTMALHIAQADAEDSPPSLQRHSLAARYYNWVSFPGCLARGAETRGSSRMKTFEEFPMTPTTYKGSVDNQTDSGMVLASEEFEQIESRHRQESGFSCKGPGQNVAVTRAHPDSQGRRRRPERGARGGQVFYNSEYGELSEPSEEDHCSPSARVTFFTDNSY
Mitogen-activated protein kinase 1, sequence (P28482 whole entry): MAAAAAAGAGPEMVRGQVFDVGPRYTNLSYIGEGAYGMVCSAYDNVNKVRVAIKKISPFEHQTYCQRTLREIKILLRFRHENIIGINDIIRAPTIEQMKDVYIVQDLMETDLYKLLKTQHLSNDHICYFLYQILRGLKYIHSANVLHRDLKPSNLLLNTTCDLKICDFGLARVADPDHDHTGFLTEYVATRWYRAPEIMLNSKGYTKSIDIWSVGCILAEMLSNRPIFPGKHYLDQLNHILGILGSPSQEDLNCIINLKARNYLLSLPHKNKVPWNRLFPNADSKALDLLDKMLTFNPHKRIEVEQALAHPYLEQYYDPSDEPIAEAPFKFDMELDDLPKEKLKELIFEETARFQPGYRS
Cyclin-dependent kinase 1/cyclin B1, sequence (P06493 whole entry): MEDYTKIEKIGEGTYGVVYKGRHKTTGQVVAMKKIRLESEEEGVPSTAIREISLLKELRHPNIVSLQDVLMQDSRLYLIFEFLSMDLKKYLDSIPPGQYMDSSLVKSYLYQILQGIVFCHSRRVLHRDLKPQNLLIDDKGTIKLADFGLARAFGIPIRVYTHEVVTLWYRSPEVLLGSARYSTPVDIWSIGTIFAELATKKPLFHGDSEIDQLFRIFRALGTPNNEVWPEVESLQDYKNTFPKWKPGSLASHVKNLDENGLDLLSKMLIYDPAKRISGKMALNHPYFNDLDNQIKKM
Cyclin-dependent kinase 1/cyclin B1, sequence (P14635 whole entry, further chain): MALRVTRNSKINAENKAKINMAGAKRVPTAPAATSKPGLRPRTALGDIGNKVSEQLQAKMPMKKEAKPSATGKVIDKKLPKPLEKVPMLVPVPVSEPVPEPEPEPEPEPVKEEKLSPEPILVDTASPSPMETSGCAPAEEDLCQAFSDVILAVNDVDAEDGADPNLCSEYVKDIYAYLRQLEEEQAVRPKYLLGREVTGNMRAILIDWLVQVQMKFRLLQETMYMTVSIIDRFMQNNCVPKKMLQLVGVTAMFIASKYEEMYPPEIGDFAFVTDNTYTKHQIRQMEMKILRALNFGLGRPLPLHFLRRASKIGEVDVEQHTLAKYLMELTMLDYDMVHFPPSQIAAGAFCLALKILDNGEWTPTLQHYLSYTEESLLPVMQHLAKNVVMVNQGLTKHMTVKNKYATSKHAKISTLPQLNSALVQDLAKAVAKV
Vascular endothelial growth factor receptor 1, sequence (P17948 whole entry): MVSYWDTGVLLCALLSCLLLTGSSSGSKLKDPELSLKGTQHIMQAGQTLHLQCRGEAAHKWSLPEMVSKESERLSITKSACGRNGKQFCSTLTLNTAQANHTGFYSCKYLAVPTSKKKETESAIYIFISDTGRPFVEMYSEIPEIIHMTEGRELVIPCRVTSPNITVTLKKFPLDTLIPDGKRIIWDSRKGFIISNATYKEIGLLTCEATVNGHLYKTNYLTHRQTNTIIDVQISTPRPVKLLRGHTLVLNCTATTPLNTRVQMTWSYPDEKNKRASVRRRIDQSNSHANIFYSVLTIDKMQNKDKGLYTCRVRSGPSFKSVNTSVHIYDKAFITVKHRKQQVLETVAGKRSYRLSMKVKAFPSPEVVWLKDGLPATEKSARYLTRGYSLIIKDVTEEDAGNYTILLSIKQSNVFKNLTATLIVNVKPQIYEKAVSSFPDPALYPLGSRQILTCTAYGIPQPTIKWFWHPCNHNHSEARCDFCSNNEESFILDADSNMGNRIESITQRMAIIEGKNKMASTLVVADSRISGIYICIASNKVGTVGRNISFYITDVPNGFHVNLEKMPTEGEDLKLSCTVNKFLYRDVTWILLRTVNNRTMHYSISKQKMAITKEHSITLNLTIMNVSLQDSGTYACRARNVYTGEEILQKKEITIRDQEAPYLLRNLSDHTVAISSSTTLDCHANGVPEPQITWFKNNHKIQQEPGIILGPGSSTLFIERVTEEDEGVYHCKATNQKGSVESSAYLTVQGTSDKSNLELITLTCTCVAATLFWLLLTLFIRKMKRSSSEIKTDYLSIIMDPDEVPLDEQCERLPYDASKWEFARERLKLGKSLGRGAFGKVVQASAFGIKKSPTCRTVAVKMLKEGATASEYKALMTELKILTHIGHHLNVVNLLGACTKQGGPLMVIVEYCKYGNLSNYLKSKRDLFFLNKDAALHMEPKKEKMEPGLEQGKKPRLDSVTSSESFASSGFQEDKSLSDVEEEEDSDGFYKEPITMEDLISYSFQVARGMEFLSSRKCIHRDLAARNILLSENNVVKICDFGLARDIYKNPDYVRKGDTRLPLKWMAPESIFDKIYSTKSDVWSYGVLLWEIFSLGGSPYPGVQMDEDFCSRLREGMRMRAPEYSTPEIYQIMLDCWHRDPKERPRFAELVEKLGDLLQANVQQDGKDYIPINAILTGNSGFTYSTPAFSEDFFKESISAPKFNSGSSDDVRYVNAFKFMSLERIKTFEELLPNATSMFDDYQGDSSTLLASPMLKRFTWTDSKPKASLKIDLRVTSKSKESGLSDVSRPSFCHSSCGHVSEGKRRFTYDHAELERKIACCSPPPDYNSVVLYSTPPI

O=C1/C(=C\c2ccc(O)c(O)c2)Oc2ccccc21
IC50 [1]: > 50 µM | IC50 [2]: 19.5 µM | IC50 (CNE): 45.5 µM | inhibition (HepG2 [3]): Active | IC50 [4]: 5.19 µM | IC50 [5]: 26.8 µM | Ratio (HeLa [6]): 1.3 | inhibition in vivo at 10 mg/kg [7]: 39.2% | inhibition (Aurora kinase B [8]): Active | IC50 (MCF7): 16.2 µM | inhibition (Aurora kinase B [9]): Active | IC50 (HepG2 [10]): 8.2 µM | IC50 [11]: 19.8 µM | IC50 [12]: 26.1 µM | IC50 (Aurora kinase B [13]): 0.735 µM | inhibition (SW-620 [14]): Dose-dependent effect | IC50 (SMMC-7721): 20.3 µM | IC50 [15]: 37.4 µM | growth inhibition (GI) (HeLa [16]): Active | Activity [17]: 21.87 g | Activity [18]: 1.71 g | inhibition (SW-620 [19]): Active | growth inhibition (GI) (HepG2 [20]): Active | IC50 (MDA-MB-231): > 50 µM | inhibition (Aurora kinase B [21]): Active | IC50 [22]: 3.7 µM | IC50 (LoVo): > 50 µM | inhibition (HeLa [23]): Dose-dependent effect | IC50 (HT-29): 34.9 µM | inhibition (Aurora kinase B [24]): Active | IC50 [25]: 100 µM | Activity [26]: 1.44 g | inhibition in vivo at 20 mg/kg [27]: 48.1% | Ratio (HepG2 [28]): 2 | IC50 [29]: 41.9 µM
